Reference: BindingDB's records for doi:10.1016/j.ejmech.2019.111726 (Jinan University, 2019)

Tests used:
[1] = Reversal of P-gp mediated multidrug resistance in human MCF7/ADM cells assessed as doxorubicin IC50 at 5 uM measured within 48 hrs by MTT assay (Rvb = 151.7 +/- 5 uM)
[2] = Reversal of P-gp mediated multidrug resistance in human HepG2/DOX cells assessed as doxorubicin IC50 at 5 uM measured within 48 hrs by MTT assay (Rvb = 69.3 +/- 3.9 uM)
[3] = Reversal of P-gp mediated multidrug resistance in human HepG2/DOX cells assessed as doxorubicin IC50 at 10 uM measured within 48 hrs by MTT assay (Rvb = 69.3 +/- 3.9 uM)
[4] = Reversal of P-gp mediated multidrug resistance in human MCF7/ADM cells assessed as doxorubicin IC50 at 10 uM measured within 48 hrs by MTT assay (Rvb = 151.7 +/- 5 uM)

## CCCN(C(=O)CCCCCCC(=O)N(CCC)[C@H]1CC2=CC(=O)O[C@]23C[C@H]1N1CCCC[C@H]13)[C@H]1CC2=CC(=O)O[C@]23C[C@H]1N1CCCC[C@H]13
[1]
  IC50: 14600 nM
[2]
  IC50: 1400 nM
[3]
  IC50: 300 nM
[4]
  IC50: 1200 nM
